# Square brackets hold non-standard residues; d marks the D form. Peptide text beside a SMILES is read from it. Cha = N[C@@H](CC1CCCCC1)C(=O)O
# Biological target: T1, Androgen receptor (Homo sapiens, UniProt P10275)
# T1 sequence (P10275 whole entry): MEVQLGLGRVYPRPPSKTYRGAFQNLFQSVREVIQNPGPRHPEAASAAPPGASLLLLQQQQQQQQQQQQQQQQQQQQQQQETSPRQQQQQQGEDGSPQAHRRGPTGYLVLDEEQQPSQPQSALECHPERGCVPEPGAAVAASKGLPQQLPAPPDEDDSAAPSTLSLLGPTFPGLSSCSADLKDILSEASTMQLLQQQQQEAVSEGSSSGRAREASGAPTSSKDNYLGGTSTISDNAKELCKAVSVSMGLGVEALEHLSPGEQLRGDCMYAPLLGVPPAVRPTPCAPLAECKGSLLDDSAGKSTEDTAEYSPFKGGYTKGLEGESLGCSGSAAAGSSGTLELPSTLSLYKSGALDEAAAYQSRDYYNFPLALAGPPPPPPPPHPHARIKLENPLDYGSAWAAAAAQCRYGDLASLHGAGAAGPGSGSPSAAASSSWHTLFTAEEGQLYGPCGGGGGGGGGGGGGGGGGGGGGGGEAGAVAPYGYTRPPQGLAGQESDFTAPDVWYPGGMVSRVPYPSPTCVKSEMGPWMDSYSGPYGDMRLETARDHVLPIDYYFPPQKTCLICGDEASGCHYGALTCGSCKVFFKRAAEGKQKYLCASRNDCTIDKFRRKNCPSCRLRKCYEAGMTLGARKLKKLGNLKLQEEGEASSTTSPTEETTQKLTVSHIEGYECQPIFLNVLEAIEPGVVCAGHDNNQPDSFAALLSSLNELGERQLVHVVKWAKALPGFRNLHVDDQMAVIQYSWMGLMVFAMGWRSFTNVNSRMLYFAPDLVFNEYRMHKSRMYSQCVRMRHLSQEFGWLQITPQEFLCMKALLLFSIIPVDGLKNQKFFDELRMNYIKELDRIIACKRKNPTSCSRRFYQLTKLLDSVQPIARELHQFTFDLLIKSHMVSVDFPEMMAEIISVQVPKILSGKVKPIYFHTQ
# Assay: Displacement of fluorescein-CSSRFESLFAGEKESR from human androgen receptor-LBD after 1 hr by fluorescence polarization assay
row,Structure (SMILES),Ki [µM]
1,CC[C@H](C)[C@H](NC(=O)[C@H](CS)NC(=O)[C@H](Cc1ccccc1)NC(=O)[C@H](CC(C)C)NC(=O)[C@H](CCC(=O)O)NC(=O)[C@H](CS)NC(=O)[C@H](Cc1ccccc1)NC(=O)[C@H](CCCNC(=N)N)NC(=O)[C@@H](N)CC(N)=O)C(=O)N[C@@H](CCC(N)=O)C(=O)NCC(=O)N[C@H](C(=O)N[C@@H](CCC(=O)O)C(=O)N[C@@H](CC(=O)O)C(=O)N[C@H](C(=O)N[C@@H](CCCCN)C(=O)N[C@@H](C)C(=O)N[C@@H](CS)C(=O)N[C@@H](CCC(=O)O)C(=O)N[C@@H](Cc1c[nH]c2ccccc12)C(=O)N[C@@H](C)C(=O)N[C@@H](CS)C(=O)N[C@@H](CCC(N)=O)C(=O)O)C(C)C)[C@@H](C)O (H-NRFCELFCIQGTEDVKACEWACQ-OH),3
2,CC(C)C[C@H](NC(=O)[C@H](CS)NC(=O)[C@H](Cc1cnc[nH]1)NC(=O)[C@H](Cc1ccccc1)NC(=O)[C@H](Cc1ccc(O)cc1)NC(=O)[C@H](CS)NC(=O)[C@H](C)N)C(=O)N[C@@H](Cc1ccccc1)C(=O)N[C@@H](CCC(=O)O)C(=O)NCC(=O)N[C@@H](CC(N)=O)C(=O)N[C@@H](CC(=O)O)C(=O)N[C@@H](CCC(=O)O)C(=O)N[C@@H](CCC(=O)O)C(=O)N[C@H](C(=O)N[C@@H](CS)C(=O)N[C@@H](CCCCN)C(=O)N[C@@H](CCC(=O)O)C(=O)N[C@@H](Cc1c[nH]c2ccccc12)C(=O)N[C@@H](CS)C(=O)O)[C@@H](C)O (H-ACYFHCLFEGNDEETCKEWC-OH),7
3,CC(C)C[C@H](NC(=O)[C@H](CS)NC(=O)[C@H](CC(N)=O)NC(=O)[C@H](CC1CCCCC1)NC(=O)[C@H](Cc1ccc(O)cc1)NC(=O)[C@H](CS)NC(=O)[C@H](C)N)C(=O)N[C@@H](Cc1ccccc1)C(=O)N[C@@H](CCC(=O)O)C(=O)NCC(=O)N[C@@H](CC(N)=O)C(=O)N[C@@H](CC(=O)O)C(=O)N[C@@H](CCC(=O)O)C(=O)N[C@@H](CCC(=O)O)C(=O)N[C@H](C(=O)N[C@@H](CS)C(=O)N[C@@H](CCCCN)C(=O)N[C@@H](CCC(=O)O)C(=O)N[C@@H](Cc1c[nH]c2ccccc12)C(=O)N[C@@H](CS)C(=O)O)[C@@H](C)O (H-ACY[Cha]NCLFEGNDEETCKEWC-OH),3
4,CC(C)C[C@H](NC(=O)[C@H](CS)NC(=O)[C@@H](NC(=O)[C@H](Cc1ccccc1)NC(=O)[C@H](Cc1ccc(O)cc1)NC(=O)[C@H](CS)NC(=O)[C@H](C)N)C(C)C)C(=O)N[C@@H](Cc1ccccc1)C(=O)N[C@@H](CCC(=O)O)C(=O)NCC(=O)N[C@@H](CC(N)=O)C(=O)N[C@@H](CC(=O)O)C(=O)N[C@@H](CCC(=O)O)C(=O)N[C@@H](CCC(=O)O)C(=O)N[C@H](C(=O)N[C@@H](CS)C(=O)N[C@@H](CCCCN)C(=O)N[C@@H](CCC(=O)O)C(=O)N[C@@H](Cc1c[nH]c2ccccc12)C(=O)N[C@@H](CS)C(=O)O)[C@@H](C)O (H-ACYFVCLFEGNDEETCKEWC-OH),3
5,CC(C)C[C@H](NC(=O)[C@H](CC(C)C)NC(=O)[C@H](CS)NC(=O)[C@H](CC(N)=O)NC(=O)[C@H](CC(C)C)NC(=O)[C@H](Cc1ccc(O)cc1)NC(=O)[C@H](CS)NC(=O)[C@H](C)N)C(=O)N[C@@H](CCC(=O)O)C(=O)NCC(=O)N[C@@H](CC(N)=O)C(=O)N[C@@H](CC(=O)O)C(=O)N[C@@H](CCC(=O)O)C(=O)N[C@@H](CCC(=O)O)C(=O)N[C@H](C(=O)N[C@@H](CS)C(=O)N[C@@H](CCCCN)C(=O)N[C@@H](CCC(=O)O)C(=O)N[C@@H](Cc1c[nH]c2ccccc12)C(=O)N[C@@H](CS)C(=O)O)[C@@H](C)O (H-ACYLNCLLEGNDEETCKEWC-OH),1.4

# Continued by falling Ki, values first:
row,Ki [µM],Structure (SMILES)
1,12,CC(C)C[C@H](NC(=O)[C@H](CS)NC(=O)[C@H](CC(N)=O)NC(=O)[C@H](Cc1ccccc1)NC(=O)[C@H](CCCNC(=N)N)NC(=O)[C@H](CS)NC(=O)[C@H](C)N)C(=O)N[C@@H](Cc1ccccc1)C(=O)N[C@@H](CCC(=O)O)C(=O)NCC(=O)N[C@@H](CC(N)=O)C(=O)N[C@@H](CC(=O)O)C(=O)N[C@@H](CCC(=O)O)C(=O)N[C@@H](CCC(=O)O)C(=O)N[C@H](C(=O)N[C@@H](CS)C(=O)N[C@@H](CCCCN)C(=O)N[C@@H](CCC(=O)O)C(=O)N[C@@H](Cc1c[nH]c2ccccc12)C(=O)N[C@@H](CS)C(=O)O)[C@@H](C)O (H-ACRFNCLFEGNDEETCKEWC-OH)
2,3.6,CC(C)C[C@H](NC(=O)[C@H](CCC(=O)O)NC(=O)[C@H](CS)NC(=O)[C@H](Cc1ccccc1)NC(=O)[C@H](CCCNC(=N)N)NC(=O)[C@@H](N)CC(N)=O)C(=O)N[C@@H](Cc1ccccc1)C(=O)N[C@@H](CS)C(=O)N[C@@H](Cc1ccccc1)C(=O)N[C@@H](CCC(N)=O)C(=O)NCC(=O)N[C@H](C(=O)NCC(=O)N[C@@H](CC(=O)O)C(=O)N[C@H](C(=O)N[C@@H](CCCCN)C(=O)N[C@@H](C)C(=O)N[C@@H](CS)C(=O)N[C@@H](CCC(=O)O)C(=O)N[C@@H](Cc1c[nH]c2ccccc12)C(=O)N[C@@H](C)C(=O)N[C@@H](CS)C(=O)N[C@@H](CCC(N)=O)C(=O)O)C(C)C)[C@@H](C)O (H-NRFCELFCFQGTGDVKACEWACQ-OH)
3,2.5,CC[C@H](C)[C@H](NC(=O)[C@H](CS)NC(=O)[C@H](Cc1ccccc1)NC(=O)[C@H](CC(C)C)NC(=O)[C@H](CCC(=O)O)NC(=O)[C@H](CS)NC(=O)[C@H](Cc1ccccc1)NC(=O)[C@H](CCCNC(=N)N)NC(=O)[C@@H](N)CO)C(=O)N[C@@H](CCC(N)=O)C(=O)NCC(=O)N[C@H](C(=O)NCC(=O)N[C@@H](CC(=O)O)C(=O)N[C@H](C(=O)N[C@@H](CCCCN)C(=O)N[C@@H](C)C(=O)N[C@@H](CS)C(=O)N[C@@H](CCC(=O)O)C(=O)N[C@@H](Cc1c[nH]c2ccccc12)C(=O)N[C@@H](C)C(=O)N[C@@H](CS)C(=O)N[C@@H](CCC(N)=O)C(=O)O)C(C)C)[C@@H](C)O (H-SRFCELFCIQGTGDVKACEWACQ-OH)

# — ChEMBL document CHEMBL3132744, “Structureactivity relationship studies of miniproteins targeting the androgen receptorcoactivator interaction” (Medchemcomm, 2013)
